Assay results as given in patent US9255100B2 (BAYER INTELLECTUAL PROPERTY GMBH, priority 2010, dated 2016).

Molecular target: T1, N-terminally GST-tagged human full length recombinant Mps-1 kinase (Homo sapiens, UniProt P33981)
T1 construct: N-terminally GST-tagged human full length recombinant Mps-1 kinase; purchased Invitrogen, Karslruhe, Germany PV4071
T1 sequence (P33981 1-857): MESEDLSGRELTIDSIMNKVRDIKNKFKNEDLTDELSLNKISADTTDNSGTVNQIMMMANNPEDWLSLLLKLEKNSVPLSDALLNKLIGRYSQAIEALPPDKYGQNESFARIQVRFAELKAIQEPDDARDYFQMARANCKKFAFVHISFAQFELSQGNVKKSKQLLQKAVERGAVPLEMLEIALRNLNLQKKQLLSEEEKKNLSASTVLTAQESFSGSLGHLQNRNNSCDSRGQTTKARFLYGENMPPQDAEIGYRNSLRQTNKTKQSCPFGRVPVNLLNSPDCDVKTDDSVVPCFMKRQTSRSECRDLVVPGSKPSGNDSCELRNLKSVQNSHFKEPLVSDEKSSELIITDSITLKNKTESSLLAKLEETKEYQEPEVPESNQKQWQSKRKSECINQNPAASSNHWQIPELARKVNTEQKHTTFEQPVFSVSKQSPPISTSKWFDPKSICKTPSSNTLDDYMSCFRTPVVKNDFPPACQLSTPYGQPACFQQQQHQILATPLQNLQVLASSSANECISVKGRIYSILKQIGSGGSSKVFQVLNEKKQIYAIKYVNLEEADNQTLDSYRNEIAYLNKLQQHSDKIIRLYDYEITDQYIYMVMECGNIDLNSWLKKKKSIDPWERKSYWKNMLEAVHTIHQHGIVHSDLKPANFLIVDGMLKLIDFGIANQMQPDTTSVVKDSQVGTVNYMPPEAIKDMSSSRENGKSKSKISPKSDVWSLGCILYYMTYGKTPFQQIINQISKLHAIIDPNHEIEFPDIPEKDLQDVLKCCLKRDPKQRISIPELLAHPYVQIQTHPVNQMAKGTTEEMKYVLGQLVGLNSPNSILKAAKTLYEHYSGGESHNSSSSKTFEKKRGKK
Test: Mps-1 kinase assay (TR-FRET)
Type: biochemical
Details: Mps1 IC50 [nM], 10 μM ATP, 1 μM peptide substrate, 60 min at 22° C.
Procedure, shortened: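 GST-tagged full-length recombinant Mps-1 at about 1 nM final, adjusted per lot for linear range, phosphorylated a biotinylated peptide. Product bound Eu-anti-phospho(Ser/Thr) antibody over 1 h at 22° C and was read by TR-FRET to streptavidin-XLent. Compounds scored for kinase inhibition.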

| SMILES | IC50 |
| --- | --- |
| Cc1cc(-c2cnc3c(NCC(C)(C)O)cc(Nc4cc(F)cc(F)c4)nn23)ccc1C(=O)NC1CC1 [Example 351, N-cyclopropyl-4-{6-[(3,5-difluorophenyl)amino]-8-[(2-hydroxy-2-methylpropyl)amino]imidazo[1,2-b]pyridazin-3-yl}-2-methylbenzamide] | 1 nM |
| Cc1cc(-c2cnc3c(NCC(C)(C)O)cc(Nc4cccc(F)c4F)nn23)ccc1C(=O)NC1CC1 [Example 352, N-cyclopropyl-4-{6-[(2,3-difluorophenyl)amino]-8-[(2-hydroxy-2-methylpropyl)amino]imidazo[1,2-b]pyridazin-3-yl}-2-methylbenzamide] | 0.2 nM |
| COc1ccc(Nc2cc(NCC(C)(C)O)c3ncc(-c4ccc(C(=O)NC5CC5)c(C)c4)n3n2)cc1F [Example 353, N-cyclopropyl-4-{6-[(3-fluoro-4-methoxyphenyl)amino]-8-[(2-hydroxy-2-methylpropyl)amino]imidazo[1,2-b]pyridazin-3-yl}-2-methylbenzamide] | 0.4 nM |
| COc1ccc(Nc2cc(NCC(C)(C)O)c3ncc(-c4ccc(C(=O)NC5CC5)c(C)c4)n3n2)cc1 [Example 354, N-cyclopropyl-4-{8-[(2-hydroxy-2-methylpropyl)amino]-6-[(4-methoxyphenyl)amino]imidazo[1,2-b]pyridazin-3-yl}-2-methylbenzamide] | 0.4 nM |
| Cc1cc(-c2cnc3c(NCC(C)(C)O)cc(Nc4cccc(Cl)c4)nn23)ccc1C(=O)NC1CC1 [Example 355, 4-{6-[(3-chlorophenyl)amino]-8-[(2-hydroxy-2-methylpropyl)amino]imidazo[1,2-b]pyridazin-3-yl}-N-cyclopropyl-2-methylbenzamide] | 0.9 nM |
| Cc1cc(-c2cnc3c(NCC(C)(C)O)cc(Nc4ccc(F)cc4F)nn23)ccc1C(=O)NC1CC1 [Example 356, N-cyclopropyl-4-{6-[(2,4-difluorophenyl)amino]-8-[(2-hydroxy-2-methylpropyl)amino]imidazo[1,2-b]pyridazin-3-yl}-2-methylbenzamide] | 0.6 nM |
| Cc1cc(-c2cnc3c(NCC(C)(C)O)cc(Nc4ccccn4)nn23)ccc1C(=O)NC1CC1 [Example 357, N-cyclopropyl-4-{8-[(2-hydroxy-2-methylpropyl)amino]-6-(pyridin-2-ylamino)imidazo[1,2-b]pyridazin-3-yl}-2-methylbenzamide] | 4.4 nM |
| Cc1cc(-c2cnc3c(NCCC(F)(F)F)cc(Nc4ccc(F)cc4)nn23)ccc1C(=O)NC1CC1 [Example 358, N-cyclopropyl-4-{6-[(4-fluorophenyl)amino]-8-[(3,3,3-trifluoropropyl)amino]imidazo[1,2-b]pyridazin-3-yl}-2-methylbenzamide] | 0.1 nM |
| Cc1cc(-c2cnc3c(NCC(C)(C)O)cc(Nc4cccnc4)nn23)ccc1C(=O)NC1CC1 [Example 359, N-cyclopropyl-4-{8-[(2-hydroxy-2-methylpropyl)amino]-6-(pyridin-3-ylamino)imidazo[1,2-b]pyridazin-3-yl}-2-methylbenzamide] | 1.2 nM |
| Cc1ccc(Sc2cc(NCC(C)(C)O)c3ncc(-c4ccc(C(=O)NC5CC5)c(C)c4)n3n2)c(F)c1 [Example 360, N-cyclopropyl-4-{6-[(2-fluoro-4-methylphenyl)sulfanyl]-8-[(2-hydroxy-2-methylpropyl)amino]imidazo[1,2-b]pyridazin-3-yl}-2-methylbenzamide] | 0.9 nM |
| Cc1cc(-c2cnc3c(NCC(C)(C)O)cc(Oc4cccc(OC(C)C)c4)nn23)ccc1C(=O)NC1CC1 [Example 361, N-cyclopropyl-4-{8-[(2-hydroxy-2-methylpropyl)amino]-6-(3-isopropoxyphenoxy)imidazo[1,2-b]pyridazin-3-yl}-2-methylbenzamide] | 0.3 nM |
| Cc1ccc(Sc2cc(NCCC(F)(F)F)c3ncc(-c4ccc(C(=O)NC5CC5)c(C)c4)n3n2)c(F)c1 [Example 362, N-cyclopropyl-4-{6-[(2-fluoro-4-methylphenyl)sulfanyl]-8-[(3,3,3-trifluoropropyl)amino]imidazo[1,2-b]pyridazin-3-yl}-2-methylbenzamide] | 0.2 nM |
| Cc1cc(-c2cnc3c(NCC(C)(C)O)cc(Nc4ccncc4)nn23)ccc1C(=O)NC1CC1 [Example 365, N-cyclopropyl-4-{8-[(2-hydroxy-2-methylpropyl)amino]-6-(pyridin-4-ylamino)imidazo[1,2-b]pyridazin-3-yl}-2-methylbenzamide] | 4.4 nM |
| COc1ccc(Nc2cc(NCC(C)(C)O)c3ncc(-c4ccc(C(=O)NC5CC5)c(C)c4)n3n2)cn1 [Example 366, N-cyclopropyl-4-{8-[(2-hydroxy-2-methylpropyl)amino]-6-[(6-methoxypyridin-3-yl)-amino]imidazo[1,2-b]pyridazin-3-yl}-2-methylbenzamide] | 1.1 nM |
| Cc1ccc(F)c(Nc2cc(NCCC(F)(F)F)c3ncc(-c4ccc(C(=O)NC5CC5)c(C)c4)n3n2)c1 [Example 367, N-cyclopropyl-4-{6-[(2-fluoro-5-methylphenyl)amino]-8-[(3,3,3-trifluoropropyl)amino]imidazo[1,2-b]pyridazin-3-yl}-2-methylbenzamide] | 0.1 nM |
| Cc1cc(-c2cnc3c(NCCC(F)(F)F)cc(Nc4ccccc4)nn23)ccc1C(=O)NC1CC1 [Example 368, 4-{6-anilino-8-[(3,3,3-trifluoropropyl)amino]imidazo[1,2-b]pyridazin-3-yl}-N-cyclopropyl-2-methylbenzamide] | 0.1 nM |
| Cc1cc(-c2cnc3c(NCCC(F)(F)F)cc(Nc4ccccc4F)nn23)ccc1C(=O)NC1CC1 [Example 369, N-cyclopropyl-4-{6-[(2-fluorophenyl)amino]-8-[(3,3,3-trifluoropropyl)amino]imidazo[1,2-b]pyridazin-3-yl}-2-methylbenzamide] | 0.1 nM |
| Cc1cc(-c2cnc3c(NCCC(F)(F)F)cc(Nc4ccccc4CO)nn23)ccc1C(=O)NC1CC1 [Example 370] | 0.1 nM |
| Cc1cc(F)cc(Nc2cc(NCCC(F)(F)F)c3ncc(-c4ccc(C(=O)NC5CC5)c(C)c4)n3n2)c1 [Example 371, N-cyclopropyl-4-{6-[(3-fluoro-5-methylphenyl)amino]-8-[(3,3,3-trifluoropropyl)amino]imidazo[1,2-b]pyridazin-3-yl}-2-methylbenzamide] | 0.2 nM |
| Cc1cc(-c2cnc3c(NCCC(F)(F)F)cc(Nc4ccc(Cl)c(F)c4)nn23)ccc1C(=O)NC1CC1 [Example 372, 4-{6-[(4-chloro-3-fluorophenyl)amino]-8-[(3,3,3-trifluoropropyl)amino]imidazo[1,2-b]pyridazin-3-yl}-N-cyclopropyl-2-methylbenzamide] | 0.2 nM |
| Cc1cc(-c2cnc3c(NCCC(F)(F)F)cc(Nc4ccc(F)c(F)c4)nn23)ccc1C(=O)NC1CC1 [Example 373, N-cyclopropyl-4-{6-[(3,4-difluorophenyl)amino]-8-[(3,3,3-trifluoropropyl)amino]imidazo[1,2-b]pyridazin-3-yl}-2-methylbenzamide] | 0.2 nM |
| Cc1cc(-c2cnc3c(NCCC(F)(F)F)cc(Nc4ccc(Cl)cc4)nn23)ccc1C(=O)NC1CC1 [Example 374, 4-{6-[(4-chlorophenyl)amino]-8-[(3,3,3-trifluoropropyl)amino]imidazo[1,2-b]pyridazin-3-yl}-N-cyclopropyl-2-methylbenzamide] | 0.3 nM |
| Cc1ccc(F)cc1Nc1cc(NCCC(F)(F)F)c2ncc(-c3ccc(C(=O)NC4CC4)c(C)c3)n2n1 [Example 375, N-cyclopropyl-4-{6-[(5-fluoro-2-methylphenyl)amino]-8-[(3,3,3-trifluoropropyl)amino]imidazo[1,2-b]pyridazin-3-yl}-2-methylbenzamide] | 0.1 nM |
| Cc1cc(-c2cnc3c(NCCC(F)(F)F)cc(Nc4ccc(Cl)cc4F)nn23)ccc1C(=O)NC1CC1 [Example 376, 4-{6-[(4-chloro-2-fluorophenyl)amino]-8-[(3,3,3-trifluoropropyl)amino]imidazo[1,2-b]pyridazin-3-yl}-N-cyclopropyl-2-methylbenzamide] | 0.2 nM |
| Cc1ccc(Cl)cc1Nc1cc(NCCC(F)(F)F)c2ncc(-c3ccc(C(=O)NC4CC4)c(C)c3)n2n1 [Example 377, 4-{6-[(5-chloro-2-methylphenyl)amino]-8-[(3,3,3-trifluoropropyl)amino]imidazo[1,2-b]pyridazin-3-yl}-N-cyclopropyl-2-methylbenzamide] | 0.3 nM |
| Cc1cc(-c2cnc3c(NCCC(F)(F)F)cc(Nc4cc(F)cc(F)c4)nn23)ccc1C(=O)NC1CC1 [Example 378, N-cyclopropyl-4-{6-[(3,5-difluorophenyl)amino]-8-[(3,3,3-trifluoropropyl)amino]imidazo[1,2-b]pyridazin-3-yl}-2-methylbenzamide] | 0.2 nM |
